Measured values reported in patent publication US20070128217A1 (priority 2003, published 2007).

Experiments:
[1] = system: recombinant human anti-SARS-CoV antibody 03-018; type: binding; parameters: Binding of antibody 03-018 to linear peptides of the N protein of SARS-CoV Urbani / Binding of antibody 03-018 to looped/cyclic peptides of the N protein of SARS-CoV Urbani: unit not given here
[2] = system: antibodies in sera from SARS patients (sera 1a, 1b, 2, 6, 37, 62, London, SARS-yellow, SARS-green); type: binding, human; parameters: Binding of serum 6 to linear peptides of protein X1 of SARS-CoV Urbani / Binding of serum 37 to linear peptides of protein X1 of SARS-CoV Urbani / Binding of serum 6 to looped/cyclic peptide (PEPSCAN-ELISA) / Binding of serum 37 to looped/cyclic peptide (PEPSCAN-ELISA) / Binding of serum 37 to looped/cyclic peptides of protein X1 of SARS-CoV Urbani / Binding of serum 6 to linear peptides of protein X2 / Binding of serum 37 to linear peptides of protein X2 / Binding of serum 37 to looped/cyclic peptides of protein X2 of SARS-CoV Urbani / Binding of serum 6 to linear peptides of protein M of SARS-CoV Urbani / Binding of serum 37 to linear peptides of protein M of SARS-CoV Urbani / Binding of serum 6 to looped/cyclic peptides of protein M of SARS-CoV Urbani / Binding of serum 37 to looped/cyclic peptides of protein M of SARS-CoV Urbani / Binding of serum 6 to linear peptides of protein X3 of SARS-CoV Urbani / Binding of serum 37 to linear peptides of protein X3 of SARS-CoV Urbani / Binding of serum 37 to looped/cyclic peptides of protein X3 of SARS-CoV Urbani / Binding of serum 6 to linear peptides of protein X4 of SARS-CoV Urbani / Binding of serum 37 to linear peptides of protein X4 of SARS-CoV Urbani / Binding of serum 37 to looped/cyclic peptides of protein X4 of SARS-CoV Urbani / Binding of serum 6 to linear peptides of protein X5 of SARS-CoV Urbani / Binding of serum 37 to linear peptides of protein X5 of SARS-CoV Urbani / Binding of serum 37 to looped/cyclic peptides of protein X5 of SARS-CoV Urbani / Binding of serum 6 to linear peptides of protein N of SARS-CoV Urbani / Binding of serum 37 to linear peptides of protein N of SARS-CoV Urbani / Binding of serum 6 to linear peptide (PEPSCAN-ELISA) / Binding of serum 1a to looped/cyclic peptides of protein N of SARS-CoV Urbani / Binding of serum 1b to looped/cyclic peptides of protein N of SARS-CoV Urbani / Binding of serum 2 to looped/cyclic peptides of protein N of SARS-CoV Urbani / Binding of serum 6 to looped/cyclic peptides of protein N of SARS-CoV Urbani / Binding of serum 37 to looped/cyclic peptides of protein N of SARS-CoV Urbani / Binding of serum 62 to looped/cyclic peptides of protein N of SARS-CoV Urbani / Binding of serum London to looped/cyclic peptides of protein N of SARS-CoV Urbani / Binding of serum SARS-green to looped/cyclic peptides of protein N of SARS-CoV Urbani: unit not given here
[3] = system: control sera (pooled serum of ten healthy LUMC hospital workers; commercial negative donor pooled serum from the Dutch bloodbank); type: binding, human; parameters: Binding of Control serum LUMC to linear peptides / Binding of Control serum Blood-bank to linear peptides / Binding of Control serum LUMC to looped peptides / Binding of Control Serum Blood-Bank to Looped peptides / Binding of Control serum LUMC to linear peptides of the protein M of SARS-CoV Urbani / Binding of Control serum Blood-bank to linear peptides of the protein M of SARS-CoV Urbani / Binding of Control serum LUMC to looped peptides of the protein M of SARS-CoV Urbani / Binding of Control Serum Blood-Bank to Looped peptides of the protein M of SARS-CoV Urbani: unit not given here
[4] = system: rabbit serum obtained by immunizing a rabbit with the SARS-CoV strain Frankfurt 1; type: binding; parameters: Binding of a rabbit serum to linear peptides / Binding of a rabbit serum to looped peptides / Rabbit serum linear peptides / Rabbit serum looped peptides / Binding of a rabbit serum to linear peptides of protein N of SARS-CoV Urbani (Rabbit serum linear peptides) / Binding of a rabbit serum to looped/cyclic peptides of protein N of SARS-CoV Urbani (Rabbit serum looped peptides): unit not given here

| Sequence | Binding of antibody 03-018 to linear peptides of the N protein of SARS-CoV Urbani [1] | Binding of antibody 03-018 to looped/cyclic peptides of the N protein of SARS-CoV Urbani [1] | Binding of serum 1a to looped/cyclic peptides of protein N of SARS-CoV Urbani [2] | Binding of serum 1b to looped/cyclic peptides of protein N of SARS-CoV Urbani [2] | Binding of serum 2 to looped/cyclic peptides of protein N of SARS-CoV Urbani [2] | Binding of serum 6 to looped/cyclic peptides of protein N of SARS-CoV Urbani [2] | Binding of serum 37 to looped/cyclic peptides of protein N of SARS-CoV Urbani [2] | Binding of serum 62 to looped/cyclic peptides of protein N of SARS-CoV Urbani [2] | Binding of serum London to looped/cyclic peptides of protein N of SARS-CoV Urbani [2] | Binding of serum SARS-green to looped/cyclic peptides of protein N of SARS-CoV Urbani [2] | Binding of serum SARS-yellow to looped/cyclic peptides of protein N of SARS-CoV Urbani [2] | Binding of Control Serum Blood-Bank to Looped peptides [3] | Binding of Control serum Blood-bank to linear peptides [3] | Binding of Control serum LUMC to linear peptides [3] | Binding of Control serum LUMC to looped peptides [3] | Binding of a rabbit serum to linear peptides of protein N of SARS-CoV Urbani (Rabbit serum linear peptides) [4] | Binding of a rabbit serum to looped/cyclic peptides of protein N of SARS-CoV Urbani (Rabbit serum looped peptides) [4] | Binding of serum 1a to linear peptides of protein N of SARS-CoV Urbani [2] | Binding of serum 1b to linear peptides of protein N of SARS-CoV Urbani [2] | Binding of serum 2 to linear peptides of protein N of SARS-CoV Urbani [2] | other results |
| --- | --- | --- | --- | --- | --- | --- | --- | --- | --- | --- | --- | --- | --- | --- | --- | --- | --- | --- | --- | --- | --- |
| NSRNSTPGSSRGNSP | 0.1 | 0.2 | 0.6 | 0.5 | 0.5 | 0.4 | 0.6 | 0.5 | 0.4 | 0.3 | 0.3 | 0.7 | 0.9 | 0.7 | 0.7 | 0.2 | 0.5 |  |  |  | Binding of serum 1a to linear peptide (PEPSCAN-ELISA) [2]: 0.6; Binding of serum 1b to linear peptide (PEPSCAN-ELISA) [2]: 0.4; Binding of serum 2 to linear peptide (PEPSCAN-ELISA) [2]: 0.3; Binding of serum 6 to linear peptide (PEPSCAN-ELISA) [2]: 0.4; Binding of serum 37 to linear peptide (PEPSCAN-ELISA) [2]: 0.9; Binding of serum 62 to linear peptide (PEPSCAN-ELISA) [2]: 0.9; Binding of serum London to linear peptide (PEPSCAN-ELISA) [2]: 1.4; Binding of serum SARS-green to linear peptide (PEPSCAN-ELISA) [2]: 0.4; Binding of serum SARS-yellow to linear peptide (PEPSCAN-ELISA) [2]: 1.0 |
| NTNSGPDDQIGYYRR | 0.1 | 0.3 | 0.5 | 0.4 | 0.5 | 0.3 | 0.9 | 0.8 | 0.5 | 0.6 | 0.6 | 0.7 | 0.7 | 0.7 | 0.9 | 0.1 | 0.6 | 0.2 | 0.1 | 0.2 | Binding of serum 6 to linear peptides of protein N of SARS-CoV Urbani [2]: 0.2; Binding of serum 37 to linear peptides of protein N of SARS-CoV Urbani [2]: 0.6; Binding of serum 62 to linear peptides of protein N of SARS-CoV Urbani [2]: 0.6; Binding of serum London to linear peptides of protein N of SARS-CoV Urbani [2]: 0.4; Binding of serum SARS-green to linear peptides of protein N of SARS-CoV Urbani [2]: 0.3; Binding of serum SARS-yellow to linear peptides of protein N of SARS-CoV Urbani [2]: 0.7 |
| PAADMDDFSRQLQNS | 0.1 | 0.2 | 0.3 | 0.1 | 0.3 | 1.1 | 0.6 | 0.3 | 0.3 | 0.3 | 0.3 |  |  |  |  | 0.2 | 0.3 | 0.3 | 0.2 | 0.2 | Binding of serum 6 to linear peptides of protein N of SARS-CoV Urbani [2]: 0.6; Binding of serum 37 to linear peptides of protein N of SARS-CoV Urbani [2]: 0.8; Binding of serum 62 to linear peptides of protein N of SARS-CoV Urbani [2]: 0.7; Binding of serum London to linear peptides of protein N of SARS-CoV Urbani [2]: 0.6; Binding of serum SARS-green to linear peptides of protein N of SARS-CoV Urbani [2]: 0.3; Binding of serum SARS-yellow to linear peptides of protein N of SARS-CoV Urbani [2]: 0.5; Control Serum Blood-Bank Looped peptides [3]: 0.3; Control serum Blood-bank linear peptides [3]: 0.8; Control serum LUMC linear peptides [3]: 0.8; Control serum LUMC looped peptides [3]: 0.3 |
| PDDQIGYYRRATRRV | 0.1 | 0.3 | 0.4 | 0.3 | 0.6 | 0.5 | 0.9 | 0.8 | 0.5 | 0.8 | 0.7 | 0.8 | 0.6 | 0.6 | 0.8 |  |  | 0.2 | 0.1 | 0.2 | Binding of serum 6 to linear peptides of protein N of SARS-CoV Urbani [2]: 0.2; Binding of serum 37 to linear peptides of protein N of SARS-CoV Urbani [2]: 0.6; Binding of serum 62 to linear peptides of protein N of SARS-CoV Urbani [2]: 0.5; Binding of serum London to linear peptides of protein N of SARS-CoV Urbani [2]: 0.4; Binding of serum SARS-green to linear peptides of protein N of SARS-CoV Urbani [2]: 0.3; Binding of serum SARS-yellow to linear peptides of protein N of SARS-CoV Urbani [2]: 0.6; Recognition of the peptide by the rabbit serum [4]: recognized |
